Assay results taken from patent US8901147B2, “Bi-heteroaryl compounds as Vps34 inhibitors” (Novartis AG, priority 2010, dated 2014).

What follows are compounds tested against recombinant human Vps34 (Homo sapiens, UniProt Q8NEB9) (assay: Vps34 KinaseGlo assay). Conditions: KinaseGlo luminescence ATP detection; PI/OG substrate; 1 μM ATP; room temperature; 8 concentrations, n=2.
Type: biochemical
Procedure: It was then resuspended in 3% OctylGlucoside by vortexing and stored at 4° C. 5 μL of a mix of PI/OG with recombinant human Vps34 were added. Kinase reactions were started by addition of 5 μl of ATP-mix containing in a final volume 10 μL 10 mM TRIS-HCl pH 7.5, 3 mM MgCl2, 50 mM NaCl, 0.05% CHAPS, 1 mM DTT and 1 μM ATP, and occurred at room temperature. Reactions were stopped with 10 μl of KinaseGlo and plates were read 10 minutes later in a Synergy2 reader using an integration time of 0.1 seconds per well.

Sequence of recombinant human Vps34 (Q8NEB9 whole entry): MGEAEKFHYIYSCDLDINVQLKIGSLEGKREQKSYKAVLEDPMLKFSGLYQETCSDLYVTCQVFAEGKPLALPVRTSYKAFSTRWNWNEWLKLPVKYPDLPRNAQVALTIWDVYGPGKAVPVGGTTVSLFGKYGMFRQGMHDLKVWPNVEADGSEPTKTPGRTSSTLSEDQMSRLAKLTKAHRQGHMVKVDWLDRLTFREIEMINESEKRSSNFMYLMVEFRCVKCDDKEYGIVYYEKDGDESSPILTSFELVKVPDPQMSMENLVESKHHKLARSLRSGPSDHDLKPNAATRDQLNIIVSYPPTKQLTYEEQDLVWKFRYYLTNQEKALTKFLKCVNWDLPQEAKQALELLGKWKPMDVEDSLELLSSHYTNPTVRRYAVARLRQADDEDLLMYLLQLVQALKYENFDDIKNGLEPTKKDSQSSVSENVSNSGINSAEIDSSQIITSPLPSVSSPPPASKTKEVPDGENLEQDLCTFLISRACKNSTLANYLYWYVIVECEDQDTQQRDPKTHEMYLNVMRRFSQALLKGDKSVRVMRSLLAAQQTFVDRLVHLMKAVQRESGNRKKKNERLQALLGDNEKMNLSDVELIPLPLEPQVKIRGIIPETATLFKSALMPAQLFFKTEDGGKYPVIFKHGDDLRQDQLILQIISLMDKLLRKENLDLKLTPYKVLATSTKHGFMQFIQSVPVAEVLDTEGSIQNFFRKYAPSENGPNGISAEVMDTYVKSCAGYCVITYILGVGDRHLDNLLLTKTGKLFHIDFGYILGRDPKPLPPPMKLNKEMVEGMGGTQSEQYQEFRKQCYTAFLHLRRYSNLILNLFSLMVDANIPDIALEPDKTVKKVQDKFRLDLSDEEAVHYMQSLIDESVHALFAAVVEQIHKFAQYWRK

In order of falling IC50:
1. CNc1ncc(-c2ccnc(NCCCN)n2)c(CC2CC2)n1 [Example 14s, N^2-(3-aminopropyl)-4′-(cyclopropylmethyl)-N^2′-methyl-4,5′-bipyrimidine-2,2′-diamine]  7130 nM
2. Nc1ncc(-c2ccnc(NCCN3CCOCC3)n2)c(CC2CC2)n1 [Example 15s, 4′-(cyclopropylmethyl)-N^2-(2-morpholinoethyl)-4,5′-bipyrimidine-2,2′-diamine]  1660 nM
3. Nc1ncc(-c2ccnc(NC3CCCOC3)n2)c(CC2CC2)n1 (stereo not drawn) [Example 15d, 4′-(cyclopropylmethyl)-N2-(tetrahydro-2H-pyran-3-yl)-4,5′-bipyrimidine-2,2′-diamine]  1500 nM
4. CNc1ncc(-c2ccnc(NC3CCCC3)n2)c(CC2CC2)n1 [Example 14h, N^2-cyclopentyl-4′-(cyclopropylmethyl)-N^2′-methyl-4,5′-bipyrimidine-2,2′-diamine]  1360 nM
5. O[C@H]1CC[C@H](Nc2nccc(-c3cncnc3CC3CC3)n2)CC1 [Example 6a, Trans-4-{[4′-(cyclopropylmethyl)-4,5′-bipyrimidin-2-yl]amino}cyclohexanol]  1000 nM
6. Cc1ncc(-c2ccnc(N[C@H]3CC[C@H](O)CC3)n2)c(CC2CC2)n1 [Example 6c, (1r,4r)-4-(4′-(cyclopropylmethyl)-2′-methyl-4,5′-bipyrimidin-2-ylamino)cyclohexanol]  775 nM
7. CC(=O)N[C@H]1CC[C@H](Nc2nccc(-c3cnc(N)nc3CC3CC3)n2)CC1 [Example 15a, N-((1r,4r)-4-(2′-amino-4′-(cyclopropylmethyl)-4,5′-bipyrimidin-2-ylamino)cyclohexyl)acetamide]  577 nM
8. CNc1ncc(-c2ccnc(N[C@H]3CC[C@H](C(=O)O)CC3)n2)c(CC2CC2)n1 [Example 14n, (1r,4r)-4-(4′-(cyclopropylmethyl)-2′-(methylamino)-4,5′-bipyrimidin-2-ylamino)cyclohexanecarboxylic acid]  439 nM
9. CN(C)c1cccc(Nc2nccc(-c3cnc(N)nc3CC3CC3)n2)c1 [Example 15y, 4′-(cyclopropylmethyl)-N^2-(3-(dimethylamino)phenyl)-4,5′-bipyrimidine-2,2′-diamine]  231 nM
10. Nc1ncc(-c2ccnc(NCCc3c[nH]cn3)n2)c(CC2CC2)n1 [Example 15t, N^2-(2-(1H-imidazol-4-yl)ethyl)-4′-(cyclopropylmethyl)-4,5′-bipyrimidine-2,2′-diamine]  187 nM
11. CC(C)(O)CNc1ncc(-c2ccnc(Nc3ccc(F)cc3)n2)c(CC2CC2)n1 [Example 16c, 1-(4′-(cyclopropylmethyl)-2-(4-fluorophenylamino)-4,5′-bipyrimidin-2′-ylamino)-2-methylpropan-2-ol]  150 nM
12. CC(=O)Nc1ccc(Nc2nccc(-c3cnc(NCC(C)(C)O)nc3CC3CC3)n2)cc1 [Example 16f, N-(4-(4′-(cyclopropylmethyl)-2′-(2-hydroxy-2-methylpropylamino)-4,5′-bipyrimidin-2-ylamino)phenyl)acetamide]  138 nM
13. Nc1ncc(-c2ccnc(Nc3ccncc3)n2)c(CO)n1 [Example 23, [2′-Amino-2-(pyridin-4-ylamino)-4,5′-bipyrimidin-4′-yl]methanol]  130 nM
14. Nc1ncc(-c2ccnc(NCCc3c[nH]c4ccccc34)n2)c(CC2CC2)n1 [Example 15p, N^2-(2-(1H-indol-3-yl)ethyl)-4′-(cyclopropylmethyl)-4,5′-bipyrimidine-2,2′-diamine]  122 nM
15. CNc1ncc(-c2ccnc(Nc3ccc(OC)nc3)n2)c(CC2CC2)n1 [Example 14a, 4′-Cyclopropylmethyl-N^2-(6-methoxy-pyridin-3-yl)-N^2′-methyl-[4,5′]bipyrimidinyl-2,2′-diamine]  115 nM
16. CNc1ncc(-c2ccnc(N[C@H]3CC[C@H](O)CC3)n2)c(CC2CC2)n1 [Example 6e, (1r, 4r)-4-(4′-(cyclopropylmethyl)-2′-(methylamino)-4,5′-bipyrimidin-2-ylamino)cyclohexanol]  111 nM
17. Nc1ncc(-c2ccnc(Nc3ccc4c(c3)OCO4)n2)c(CC2CC2)n1 [Example 15m, N^2-(benzo[d][1,3]dioxol-5-yl)-4′-(cyclopropylmethyl)-4,5′-bipyrimidine-2,2′-diamine]  101 nM
18. CC(=O)Nc1ccc(Nc2nccc(-c3cnc(N)nc3CC3CC3)n2)cc1 [Example 15n, N-(4-(2′-amino-4′-(cyclopropylmethyl)-4,5′-bipyrimidin-2-ylamino)phenyl)acetamide]  62 nM
19. Nc1ncc(-c2ccnc(Nc3ccc(F)cc3)n2)c(CC2CC2)n1 [Example 15j, 4′-(cyclopropylmethyl)-N^2-(4-fluorophenyl)-4,5′-bipyrimidine-2,2′-diamine]  53 nM
20. C[C@@H](CO)Nc1ncc(-c2ccnc(Nc3ccncc3)n2)c(CC2CC2)n1 [Example 10q, (S)-2-(4′-(cyclopropylmethyl)-2-(pyridin-4-ylamino)-4,5′-bipyrimidin-2′-ylamino)propan-1-ol]  53 nM
21. CCC(C)Nc1ncc(-c2ccnc(Nc3ccncc3)n2)c(CC2CC2)n1 (stereo not drawn) [Example 10s, N^2′-sec-butyl-4′-(cyclopropylmethyl)-N^2-(pyridin-4-yl)-4,5′-bipyrimidine-2,2′-diamine]  51.5 nM
22. c1cc(Nc2nccc(-c3cnc(NC4CCC4)nc3CC3CC3)n2)ccn1 [Example 10f, N^2′-cyclobutyl-4′-(cyclopropylmethyl)-N^2-(pyridin-4-yl)-4,5′-bipyrimidine-2,2′-diamine]  45.5 nM
23. Cc1cc2cc(Nc3nccc(-c4cnc(N)nc4CC4CC4)n3)ccc2[nH]1 [Example 15w, 4′-(cyclopropylmethyl)-N^2-(2-methyl-1H-indol-5-yl)-4,5′-bipyrimidine-2,2′-diamine]  36 nM
24. CC(CO)Nc1ncc(-c2ccnc(Nc3ccncc3)n2)c(CC2CC2)n1 (stereo not drawn) [Example 10o, 2-(4′-(cyclopropylmethyl)-2-(pyridin-4-ylamino)-4,5′-bipyrimidin-2′-ylamino)propan-1-ol]  31.5 nM
25. Nc1ncc(-c2ccnc(Nc3ccncc3)n2)c(C(F)(F)F)n1 [Example 22, N2-(pyridin-4-yl)-4′-(trifluoromethyl)-4,5′-bipyrimidine-2,2′-diamine]  31 nM
26. COCCNc1ncc(-c2ccnc(Nc3ccncc3)n2)c(CC2CC2)n1 [Example 10n, 4′-(cyclopropylmethyl)-N^2′-(2-methoxyethyl)-N^2-(pyridin-4-yl)-4,5′-bipyrimidine-2,2′-diamine]  31 nM
27. N#Cc1ccc(Nc2nccc(-c3cnc(N)nc3CC3CC3)n2)cc1 [Example 15x, 4-(2′-amino-4′-(cyclopropylmethyl)-4,5′-bipyrimidin-2-ylamino)benzonitrile]  27 nM
28. Nc1ncc(-c2ccnc(Nc3ccc4[nH]ccc4c3)n2)c(CC2CC2)n1 [Example 15l, 4′-(cyclopropylmethyl)-N^2-(1H-indol-5-yl)-4,5′-bipyrimidine-2,2′-diamine]  25 nM
29. CC(C)(O)CNc1ncc(-c2ccnc(Nc3ccncc3)n2)c(CC2CC2)n1 [Example 10t, 1-(4′-(cyclopropylmethyl)-2-(pyridin-4-ylamino)-4,5′-bipyrimidin-2′-ylamino)-2-methylpropan-2-ol]  15 nM
30. Nc1ncc(-c2ccnc(Nc3ccncc3)n2)c(COCc2ccccc2)n1 [Example 13, 4′-Benzyloxymethyl-N^2-pyridin-4-yl-[4,5′]bipyrimidinyl-2,2′-diamine]  7 nM
